Measured values from US12162857B2, “Antiviral compounds” (priority 2022, dated 2024).

Tested on: Human RSV-A (“Long” strain)
Assay: RSV-A assay: CPE in Hep-2 cells, ATPlite readout
Format: cell-based
Conditions: human respiratory syncytial virus, 120 h, MOI 0.1, 5-day incubation
Source text: Hep-2 cells, (originally derived from tumors grown in irradiated-cortisonised weanling rats that had been injected with epidermoid carcinoma tissue from a person's larynx, but later found to be indistinguishable from HeLa cells by PCR DNA analysis), were used for the culturing of genotype A, “Long” strain RSV. Flasks were inoculated with RSV and viral stocks were collected once cytopathic effect (CPE) was greater than 90%. Viral stocks in 25% sucrose media were snap frozen using liquid nitrogen to increase viral stability. Viral stock titers were quantified by tissue culture infectious dose 50% (TCID50) using 8,000 cells per well and 3-fold viral dilutions across a 96-well plate, cultured for 4 days. Viral stock titers were also quantified by a plaque forming unit assay, as described elsewhere.
Following extensive parameter testing, the final assay is run as follows: Hep-2 cells are seeded into the inner 60 wells of a 96-well plate at 8,000 cells per well in a volume of 50 μL using Growth Media (DMEM without phenol red, 1% L-Glut, 1% Penn/Strep, 1% nonessential amino acids, 10% heat-inactivated FBS). 2-fold serial dilutions of control and test compounds are added to the wells in duplicate in a total volume of 25 μL. Viral stock is then added to the wells at a multiplicity of infection (MOI) of 0.1 in a volume of 25 μL, bringing the total volume of each well to 100 μL. The MOI is calculated using the PFU/mL, or TCID50 if unavailable. Each 96-well plate has a control column of 6 wells with cells and virus but no compound (negative control, max CPE), a column with cells but no compound or virus (positive control, minimum CPE), and a column with no cells or virus or compound (background plate/reagent control). The control wells with cells but no virus are given an additional 25 μL of growth media containing an equal quantity of sucrose as those wells receiving the viral stock in order to keep consistent in media and volume conditions. The outer wells of the plate are filled with 125 μL of moat media (DMEM, 100 Penn/Strep) to act as a thermal and evaporative moat around the test wells. Following a 5-day incubation period, the plates are read using ATPlite (50 uL added per well), which quantifies the amount of ATP (a measure of cell health) present in each well. Assay plates are read using the Envision luminometer. […] EC50 ranges are as follows: A<0.01 μM; B 0.01-0.05 μM; C>0.05 μM.

With `COc1cc(C(=O)NC[C@](O)(c2cc(C(C)(C)C(N)=O)c(F)c(-c3ccc(F)cc3)n2)C2CC2)cc2cn(C3CC3)nc12` (single isomer, unassigned) [Example 43] as the compound, how does the EC50 read?
Its EC50 is < 0.01 µM.

With `COc1cc(C(=O)NC[C@](O)(c2cc(C(F)(F)C#N)c(F)c(-c3cc(Cl)c(F)cc3F)n2)C2CC2)cc2cn(C3(F)CC3)nc12` [Example 40] as the compound, how does the EC50 read?
Its EC50 is 0.01 to 0.05 µM.

`COc1cc(C(=O)NC[C@](O)(c2cc(C(F)(F)C(N)=O)c(F)c(-c3ccc(F)c(Cl)c3F)n2)C2CC2)cc2cn(C(F)F)nc12` (single isomer, unassigned) [Example 34] was tested. Which EC50 did it give?
Its EC50 is 0.01 to 0.05 µM.

For `COc1cc(C(=O)NC[C@](O)(c2cc(C(F)(F)C(N)=O)c(F)c(-c3cc(Cl)c(F)cc3F)n2)C2CC2)cc2cn(C3(F)CC3)nc12` (single isomer, unassigned) [Example 39], which EC50 is on record?
The EC50 was < 0.01 µM.

`NC(=O)C1(c2cc([C@@](O)(CNC(=O)c3cc(OC4CC4)c4nn(C5CC5)cc4c3)C3CC3)nc(-c3cc(Cl)c(F)cc3F)c2F)CC1` (single isomer, unassigned) [Example 14] was tested. Which EC50 did it give?
The EC50 was 0.01 to 0.05 µM.

How did the EC50 turn out when `COc1cc(C(=O)NC[C@](O)(c2cc(C(F)(F)C(N)=O)c(F)c(-c3cc(Cl)c(F)cc3F)n2)C2CC2)cc2cc(Cl)c(C)nc12` (single isomer, unassigned) [Example 42] was run?
The EC50 was > 0.05 µM.

For `COc1cc(C(=O)NC[C@](O)(c2cc(C3(C#N)CC3)c(F)c(-c3cc(Cl)c(F)cc3F)n2)C2CC2)cc2cn(C3CC3)nc12` (single isomer, unassigned) [Example 12], which EC50 is on record?
Its EC50 is 0.01 to 0.05 µM.

With `COc1cc(C(=O)NC[C@](O)(c2cc(C(F)(F)C(N)=O)c(F)c(-c3ccc(F)c(Cl)c3F)n2)C2CC2)cc2cn(C3(F)CC3)nc12` (single isomer, unassigned) [Example 33] as the compound, how does the EC50 read?
Its EC50 is < 0.01 µM.

Which EC50 does the source give for `N#CC1(c2cc([C@@](O)(CNC(=O)c3cc(OC4CC4)c4nn(C5(F)CC5)cc4c3)C3CC3)nc(-c3cc(Cl)c(F)cc3F)c2F)CC1` (single isomer, unassigned) [Example 17] here?
Its EC50 is 0.01 to 0.05 µM.

Which EC50 does the source give for `COc1cc(C(=O)NC[C@](O)(c2cc(C3(C(N)=O)CC3)c(F)c(-c3cc(Cl)c(F)cc3F)n2)C2CC2)cc2cn(C3(F)CC3)nc12` (single isomer, unassigned) [Example 13] here?
The EC50 was 0.01 to 0.05 µM.

How did the EC50 turn out when `Cc1nc2c(OC3CC3)cc(C(=O)NC[C@](O)(c3cc(C(C)(C)C(N)=O)c(F)c(-c4ccc(F)cc4)n3)C3CC3)cc2cc1Cl` (single isomer, unassigned) [Example 44] was run?
Its EC50 is < 0.01 µM.

Tested on: HMPV A2 TN/94-49
Assay: HMPV antiviral assay: LLC-MK2 cells, ATP-Lite readout
Format: cell-based
Conditions: LLC-MK2, 168 h, MOI 0.005, 7 days incubation
Method: In vitro HMPV antiviral activity was evaluated using the clinical isolate A2 strain TN 94-49 and LLC-MK2 cells (ATCC #CCL-7), an immortalized kidney epithelial cell line from Macaca mulatta. Compounds were resuspended in dimethyl sulfoxide (DMSO) at 10 mM, serially diluted and added to a 384-well source plate. Subsequently, the compounds were diluted and transferred onto 384-well assay plates using the Echo-650 automated liquid handling system (Beckman Coulter, Indiana). The test compounds were assessed in duplicate at a top concentration of 2 μM followed by 2.5-fold serial dilutions to give a total of 10 concentration points. DMSO control wells were also included on the assay plates and were either infected or not, acting as positive and negative controls. A2 TN 94-49 virus infections were performed in-suspension with LLC-MK2 cells. The cells were washed twice with PBS and removed from the cell-culture flask with 0.25% trypsin-EDTA (Thermo Fisher Scientific, MA). The trypsin-EDTA was inactivated by resuspending in 2% fetal bovine serum (FBS) and OptiMEM (ThermoFisher Scientific, MA) containing 1% penicillin-streptomycin. Cells were pelleted by centrifuging for 5 minutes at 800 rpm, the supernatant was removed, and cells were re-suspended and washed in PBS plus 100 μg/mL CaCl2). This step was performed twice. Cells were then re-suspended in serum-free (SF)-OptiMEM containing 4 μg/mL TPCK-Trypsin (Sigma Aldrich, MO), 1% penicillin-streptomycin (ThermoFisher Scientific, MA) and 100 μg/mL CaCl2). Cells were counted and seeded at a density of 5,000 cells/well, 12.5 μL/well. Virus infections were done at a multiplicity of infection (MOI) of 0.005 with 12.5 μL added per well. Virus infections were performed in infection media which contained SF-OptiMEM, 100 μg/mL CaCl2) and 1% penicillin-streptomycin. HMPV viral stocks are suspended in infection media+5% glycerol, thus an equal volume of infection media+5% glycerol was added to uninfected wells to equalize the final % glycerol across all wells of the assay plate. The final concentration of TPCK-trypsin was 2 μg/mL. The assay plates were incubated at 37° C., 5% CO2 for 7 days. After 7 days incubation, 12.5 μL of ATP-Lite (PerkinElmer, MA) was added to each well and the raw luminescence values were determined using the Envision 2104 (Perkin Elmer, MA). The average of the raw luminescence values for the cells and virus only positive control wells was subtracted from all conditions tested and the percent cell health was determined by dividing these values by the average of the cells only negative control wells. EC50 values were then calculated by non-linear regression using a four-parameter curve logistic equation. The curve fit model employed was XLFit Dose Response One Site Model 200: y=(A+(B/(1+((x/C)^D)))), where A is the minimum y value, B is the maximum y value, C is the log EC50 value, and D is the slope factor. […] EC50 ranges are as follows: A<1 μM; B>1 μM.

For `COc1c(C(C)(C)O)cc([C@@](O)(CNC(=O)c2cc(OC)c3nn(C4CC4)cc3c2)C2CC2)nc1-c1cc(F)c(F)cc1F` (single isomer, unassigned) [Example 165], which EC50 is on record?
The EC50 was > 1 µM.

With `COc1cc(C(=O)NC[C@@](O)(c2ccccc2)c2cc(C(C)(C)F)c(F)c(-c3cc(Cl)c(F)cc3F)n2)cc2cn(C3CC3)nc12` [Example 180] as the compound, how does the EC50 read?
Its EC50 is > 1 µM.

Which EC50 does the source give for `COc1cc(C(=O)NC[C@@](O)(c2ccccc2)c2cc(C(C)(C)O)c(F)c(-c3cccc(Cl)c3Cl)n2)cc2sc(C)nc12` [Example 78] here?
Its EC50 is < 1 µM.

`COc1cc(C(=O)NC[C@@](O)(c2cccc(F)c2)c2cc(C(C)(C)O)c(F)c(-c3ccc(F)c(Cl)c3Cl)n2)cc2cn(C3CC3)nc12` [Example 103] was tested. Which EC50 did it give?
Its EC50 is < 1 µM.

With `CC(C)(O)c1cc([C@@](O)(CNC(=O)c2cc(Cl)c3nn(C4CC4)cc3c2)c2ccccc2)nc(-c2cc(Cl)c(F)cc2F)c1Cl` [Example 133] as the compound, how does the EC50 read?
Its EC50 is > 1 µM.

How did the EC50 turn out when `COc1cc(C(=O)NC[C@@](O)(c2ccccc2)c2cc(C(C)(C)O)cc(-c3cccc(Cl)c3Cl)n2)cc2cn(C(F)F)nc12` [Example 150] was run?
Its EC50 is < 1 µM.

For `COc1cc(C(=O)NC[C@@](O)(c2ccccc2)c2cc(C(C)(C)C(N)=O)c(F)c(-c3cc(Cl)c(F)cc3F)n2)cc2cn(C(F)F)nc12` [Example 161], which EC50 is on record?
Its EC50 is > 1 µM.

How did the EC50 turn out when `CC(C)(O)c1cc(-c2cccc(Cl)c2Cl)nc([C@@](O)(CNC(=O)c2cc(Cl)c3nn(C4CC4)cc3c2)c2ccccc2)c1` [Example 149] was run?
Its EC50 is < 1 µM.

With `CC(C)(O)c1cc([C@@](O)(CNC(=O)c2cc(Cl)c3nn(C4CC4)cc3c2)c2cccc(F)c2)nc(-c2ccc(F)c(Cl)c2Cl)c1F` [Example 105] as the compound, how does the EC50 read?
Its EC50 is < 1 µM.

`COc1cc(C(=O)NC[C@@](O)(c2ccccc2)c2cc(C(C)(C)O)c(Cl)c(-c3cccc(Cl)c3Cl)n2)cc2sc(C)nc12` [Example 139] was tested. Which EC50 did it give?
Its EC50 is < 1 µM.

`COc1cc(C(=O)NC[C@@](O)(c2ccccc2)c2cc(C(C)(C)O)c(F)c(-c3ccc(F)c(Cl)c3Cl)n2)cc2cc(C3CC3)nn12` [Example 69] was tested. Which EC50 did it give?
The EC50 was < 1 µM.

`COc1cc(C(=O)NC[C@](O)(c2cc(C(C)(C)O)c(F)c(-c3cc(Cl)c(F)cc3F)n2)C2CC2)cc2cc(C3CC3)nn12` [Example 56] was tested. Which EC50 did it give?
The EC50 was < 1 µM.

For `COc1cc(C(=O)NC[C@@](O)(c2ccccc2)c2cc(C(C)(C)O)c(F)c(-c3ccc(F)c(F)c3F)n2)cc2cn(C3CC3)nc12` [Example 84], which EC50 is on record?
The EC50 was < 1 µM.

For `COc1cc(C(=O)NC[C@@](O)(c2ccccc2)c2cc(C(C)(C)O)c(Cl)c(-c3cccc(Cl)c3Cl)n2)cc2cn(C(F)F)nc12` [Example 142], which EC50 is on record?
The EC50 was > 1 µM.

For `COc1cc(C(=O)NC[C@@](O)(c2ccccc2)c2cc(C(C)(C)O)cc(-c3ccc4c(c3Cl)OC(F)(F)O4)n2)cc2cn(C(F)F)nc12` [Example 158], which EC50 is on record?
The EC50 was < 1 µM.

For `COc1cc(C(=O)NC[C@@](O)(c2cccc(F)c2)c2cc(C(C)(C)O)c(F)c(-c3cccc(Cl)c3Cl)n2)cc2sc(C)nc12` [Example 102], which EC50 is on record?
Its EC50 is < 1 µM.

`COc1cc(C(=O)NC[C@@](O)(c2ccccc2)c2cc(C(C)(C)O)cc(-c3ccc(F)c(Cl)c3Cl)n2)cc2cn(C(F)F)nc12` [Example 154] was tested. Which EC50 did it give?
The EC50 was < 1 µM.

How did the EC50 turn out when `COc1cc(C(=O)NC[C@@](O)(c2ccccc2)c2cc(C(C)(C)O)c(F)c(-c3cc(Cl)c(F)cc3F)n2)cc2cn(C3(F)CC3)nc12` [Example 61] was run?
The EC50 was < 1 µM.

For `COc1cc(C(=O)NC[C@@](O)(c2ccccc2)c2cc(C(C)(C)O)cc(-c3ccc(F)c(Cl)c3Cl)n2)cc2cn(C3CC3)nc12` [Example 152], which EC50 is on record?
The EC50 was < 1 µM.

`COc1cc(C(=O)NC[C@@](O)(c2ccccc2)c2cc(C(C)(C)O)cc(-c3cccc(Cl)c3Cl)n2)cc2sc(C)nc12` [Example 147] was tested. Which EC50 did it give?
Its EC50 is < 1 µM.

For `CC(C)(O)c1cc(-c2ccc(F)c(Cl)c2Cl)nc([C@@](O)(CNC(=O)c2cc(Cl)c3nn(C4CC4)cc3c2)c2ccccc2)c1` [Example 153], which EC50 is on record?
Its EC50 is < 1 µM.

How did the EC50 turn out when `COc1cc(C(=O)NC[C@@](O)(c2ccccc2)c2cc(C(C)(C)O)cc(-c3ccc(F)c(Cl)c3Cl)n2)cc2sc(C)nc12` [Example 151] was run?
Its EC50 is < 1 µM.

With `CC(C)(O)c1cc([C@@](O)(CNC(=O)c2cc(OC3CC3)c3nn(C4CC4)cc3c2)c2ccccc2)nc(-c2cc(Cl)c(F)cc2F)c1F` [Example 63] as the compound, how does the EC50 read?
Its EC50 is < 1 µM.

Which EC50 does the source give for `COc1cc(C(=O)NC[C@@](O)(c2ccccc2)c2cc(C(C)(C)O)cc(-c3ccc4c(c3Cl)OC(F)(F)O4)n2)cc2sc(C)nc12` [Example 157] here?
The EC50 was < 1 µM.
